Measured values: patent US20250381165A1, “Method of Use for Benzofuran Compounds” (Tampa Bay Research Institute, Inc., priority 2024, published 2025)

Tested on: CD45+/MHC II/CD11c+ splenocytes
Assay: In vivo SIINFEKL loading, flow cytometry of splenocytes
Design: species or system C57BL/6NCrl mice
Conditions: CD45+/MHC II/CD11c+ population
Description: Since the oral route of drug delivery is preferred, various doses of BzFβ (1, 2, 4 mg) were administered by oral gavage, immediately following an iv injection of 50 μg SIINFEKL peptide. One-hour post-treatment the blood and spleens from each mouse was collected. Blood samples were processed as described above. Spleens were collected in 4 mL of Hanks Balanced Salt Solution (HBSS) and converted to a single cell suspension using sterile pouches and a Steward Stomacher 80 Biomaster Blender (Fisher Scientific, cat. no. 14-285-27). The resulting cell suspension was pelleted and suspended in 4 mL freshly prepared red blood cell lysis buffer (150 mM NH4Cl, 10 mM NaHCO3, 0.1 mM EDTA in sterile distilled H2O) for 1-3 minutes. The splenocytes were pelleted and filtered through […] EASY strainer filters (USA Scientific, cat. no. 5654-2070). The cell count was determined using the MUSE cell viability kit (MCH600103) and MUSE Cell Analyzer (Luminex Corp, Austin TX).
For peptide loading, splenocytes were prepared to 5×10^5/mL in cRPMI, then 100 μL of cells was added to wells of clear round-bottom 96 well tissue culture plates. […] Cells were gated based on live single-cell populations and positives were assessed using isotype controls and fluor-minus-one analysis when needed. Data were analyzed using the Attune NxT software or FlowJo versions 10.7 and 10.8.

## O=C(O)/C=C/c1ccc2occc2c1 [BzFβ, (2E)-3-(1-benzofuran-5-yl)prop-2-enoic acid]
  cells co-expressing MHCI bound SIINFEKL: significantly more of these cells
